Article PMC3848336, “Aurora Isoform Selectivity: Design and Synthesis of Imidazo[4,5-b]pyridine Derivatives as Highly Selective Inhibitors of Aurora-A Kinase in Cells” (Journal of Medicinal Chemistry, 2013)

Tests used:
Aurora A = Aurora A (Homo sapiens, UniProt O14965); assay: Kinase selectivity profiling; type: biochemical; conditions: 110-kinase panel
Aurora B = Aurora B (Homo sapiens, UniProt Q96GD4); assay: Cellular inhibition of histone H3 phosphorylation at S10 (Aurora-B biomarker) in HCT116 cells; type: cell-based
Sequence of Aurora B (Q96GD4 whole entry): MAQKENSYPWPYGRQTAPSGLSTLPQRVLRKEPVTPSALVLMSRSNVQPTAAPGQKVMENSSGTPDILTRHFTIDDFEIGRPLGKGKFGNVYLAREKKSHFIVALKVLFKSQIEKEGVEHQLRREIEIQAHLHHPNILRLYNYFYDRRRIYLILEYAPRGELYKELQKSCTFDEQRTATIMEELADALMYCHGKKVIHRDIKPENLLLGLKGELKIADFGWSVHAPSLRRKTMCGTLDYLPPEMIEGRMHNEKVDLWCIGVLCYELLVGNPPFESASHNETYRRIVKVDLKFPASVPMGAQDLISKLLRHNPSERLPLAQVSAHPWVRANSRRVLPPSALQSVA
Sequence of Aurora B (Q9NQS7 whole entry partner): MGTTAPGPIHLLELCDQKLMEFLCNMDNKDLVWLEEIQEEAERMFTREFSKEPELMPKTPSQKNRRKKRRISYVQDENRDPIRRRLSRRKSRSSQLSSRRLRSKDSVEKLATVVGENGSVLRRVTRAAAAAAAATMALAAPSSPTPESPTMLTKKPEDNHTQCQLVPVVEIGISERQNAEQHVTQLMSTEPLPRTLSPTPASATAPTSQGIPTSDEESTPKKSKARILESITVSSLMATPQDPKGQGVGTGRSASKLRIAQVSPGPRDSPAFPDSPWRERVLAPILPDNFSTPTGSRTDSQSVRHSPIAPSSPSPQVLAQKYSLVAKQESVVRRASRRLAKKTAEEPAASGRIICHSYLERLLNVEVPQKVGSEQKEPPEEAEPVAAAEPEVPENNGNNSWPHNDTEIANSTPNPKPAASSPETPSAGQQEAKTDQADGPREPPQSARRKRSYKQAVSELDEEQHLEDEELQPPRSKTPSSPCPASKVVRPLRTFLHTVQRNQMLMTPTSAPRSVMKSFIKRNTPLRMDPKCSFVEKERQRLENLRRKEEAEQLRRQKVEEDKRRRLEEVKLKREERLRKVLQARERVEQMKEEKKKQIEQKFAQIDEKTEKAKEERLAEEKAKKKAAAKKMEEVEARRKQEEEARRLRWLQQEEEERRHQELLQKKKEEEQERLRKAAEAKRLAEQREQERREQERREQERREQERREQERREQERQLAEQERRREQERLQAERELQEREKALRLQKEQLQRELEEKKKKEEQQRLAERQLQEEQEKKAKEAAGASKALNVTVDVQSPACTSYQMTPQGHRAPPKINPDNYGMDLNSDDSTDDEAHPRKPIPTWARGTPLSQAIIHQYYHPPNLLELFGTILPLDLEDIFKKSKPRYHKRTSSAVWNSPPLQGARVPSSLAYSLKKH
Sequence of Aurora B (O15392 whole entry partner): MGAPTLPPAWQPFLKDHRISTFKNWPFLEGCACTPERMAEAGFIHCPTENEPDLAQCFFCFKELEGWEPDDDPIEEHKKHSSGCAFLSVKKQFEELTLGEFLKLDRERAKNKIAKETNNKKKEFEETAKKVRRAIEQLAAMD
Sequence of Aurora B (Q53HL2 whole entry partner): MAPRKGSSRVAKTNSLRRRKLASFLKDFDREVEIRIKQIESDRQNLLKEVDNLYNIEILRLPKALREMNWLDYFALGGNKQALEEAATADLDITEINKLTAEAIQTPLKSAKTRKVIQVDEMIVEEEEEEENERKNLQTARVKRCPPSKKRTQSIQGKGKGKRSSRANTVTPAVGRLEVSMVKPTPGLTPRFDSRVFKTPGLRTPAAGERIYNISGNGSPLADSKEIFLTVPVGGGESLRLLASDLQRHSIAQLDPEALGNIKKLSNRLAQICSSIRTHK

Aurora-A wild type = target: T1, Aurora-A wild type (Homo sapiens, UniProt O14965); assay: Cellular inhibition of Aurora-A autophosphorylation at T288 in HCT116 cells; type: cell-based; conditions: 1.5 μM
T1 construct: expressed in transfected cells; host or cells: Hela cervical cancer cells; HCT116 human colon carcinoma cells
T1 sequence (O14965 whole entry): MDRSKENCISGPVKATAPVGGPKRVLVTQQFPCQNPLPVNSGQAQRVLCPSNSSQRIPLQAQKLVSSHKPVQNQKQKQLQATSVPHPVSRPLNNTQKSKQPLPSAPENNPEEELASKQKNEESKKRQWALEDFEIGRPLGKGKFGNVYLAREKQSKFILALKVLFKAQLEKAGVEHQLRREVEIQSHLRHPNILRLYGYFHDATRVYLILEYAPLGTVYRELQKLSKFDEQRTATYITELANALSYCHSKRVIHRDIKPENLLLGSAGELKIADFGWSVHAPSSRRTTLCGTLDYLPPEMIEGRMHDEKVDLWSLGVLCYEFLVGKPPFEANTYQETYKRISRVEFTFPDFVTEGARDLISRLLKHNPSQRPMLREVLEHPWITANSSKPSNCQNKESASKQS
Procedure: Determination of cellular inhibition of Aurora-A (at T288) and histone H3 (at S10) has been described previously.[19] Briefly, cells were transfected with the Myc-tagged Aurora-A wild type or mutants and treated with different concentrations of the inhibitors for 2 h followed by lysis in LDS sample buffer. The samples were sonicated and boiled, and the proteins were separated by LDS–PAGE and transferred to nitrocellulose membranes. The upper and lower parts of the membranes were probed with anti-P-T288 (Aurora-A autophosphorylation/activation) and anti-P-histone H3 (Aurora-B substrate phosphorylation) antibodies, respectively. The blots were quantified and IC50 values determined using Graphpad Prism. Mammalian cell expression constructs encoding Aurora-A T217E, L215R, and R220K mutants with N-terminal Myc tags were produced using Quikchange mutagenesis (Stratagene).

Sequence of Aurora A (O14965 whole entry): as above

Row | SMILES | remaining activity at 1 µM (Aurora A) [%] | histone H3 phosphorylation (Aurora B; 1.5 μM) | inhibition of histone H3 phosphorylation at S10 (Aurora B; 25 μM) | inhibition of histone H3 phosphorylation at S10 (Aurora B; 50 μM) | phosphorylation of Aurora-A (Aurora-A wild type)
1 | Cc1nn(C)cc1-c1nc2c(Oc3ccc(C(=O)Nc4ccccc4)cc3)c(Cl)cnc2[nH]1 [compound 28c, 4-((6-Chloro-2-(1,3-dimethyl-1H-pyrazol-4-yl)-3H-imidazo[4,5-b]pyridin-7-yl)oxy)-N-phenylbenzamide] | 4 | – | – | – | –
2 | Cc1nn(C)cc1-c1nc2c(Oc3ccc(C(=O)NC4CCC4)cc3)c(Cl)cnc2[nH]1 [compound 40f, 4-((6-Chloro-2-(1,3-dimethyl-1H-pyrazol-4-yl)-3H-imidazo[4,5-b]pyridin-7-yl)oxy)-N-cyclobutylbenzamide] | – | increase in histone H3 phosphorylation | partial inhibition | complete inhibition | completely inhibited
